The values that follow come from paper PMC12221113, “Deferasirox Derivatives as Inhibitors of Kallikrein‐Related Peptidases Associated to Neurodegenerative Diseases” (Chemmedchem, 2025).

The structures appear in SMILES notation. Where two headings read alike, the source gives them in different places. Some results are limits rather than exact numbers.

Data set [1] relates to targeted KLKs (KLK1, KLK6, KLK8). Put plainly: Impact of preincubated compound (50 μM) and Fe3+ (100 μM) on targeted KLKs. The format is biochemical, human. The conditions noted are these: compound 50 μM preincubated with Fe3+ 100 μM. How it is done: Next, we evaluated the impact of preincubated mixtures of each compound at 50 μM and Fe^3+ at 100 μM to model an iron overload condition on targeted KLKs (Figure S5, Supporting Information).

The target in the next data set is KLK1 (Homo sapiens, UniProt P06870). The data set is described as follows: KLK1 fluorogenic enzyme inhibition assay (H-PFR-AMC). The conditions noted are these: for IC50: IC50 KLK1, 15 min preincubation at 37 °C, NI = not a hit (not above 50% inhibition at 50 μM).
KLK1, sequence (P06870 25-262): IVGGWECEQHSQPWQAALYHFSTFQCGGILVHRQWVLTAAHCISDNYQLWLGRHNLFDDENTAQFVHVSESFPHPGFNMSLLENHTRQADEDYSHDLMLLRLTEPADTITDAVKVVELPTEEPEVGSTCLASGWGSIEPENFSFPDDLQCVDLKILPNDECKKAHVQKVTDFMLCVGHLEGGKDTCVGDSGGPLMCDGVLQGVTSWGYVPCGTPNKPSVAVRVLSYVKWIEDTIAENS
A short description of data set [2]: UV–vis spectroscopy of Fe3+ chelation and complex stability. The format is physicochemical. Conditions: activity buffer pH 7.4, 1:1 ratio, t = 0 to 240 min. How it is done: UV–vis analysis of DFX was first performed to monitor the chelation process and the stability of the Fe^3+ complex over time at a 1:1 ratio, typically representing the duration of inhibition assay (30 min to 4 h) (Figure S1, Supporting Information). In these conditions of pH (7.4) and ligand‐to‐iron ratio and according to Steinhauser et al. the main species in solution is assigned to [Fe(DFX)2]^3−.^[ [49] ^] Indeed, we aimed to explore not only the chelation properties but also the impact of the chelated species on enzyme inhibition.
2.c. Chelation properties, iron interactions, and selectivity profiles of selected compounds targeting KLK activity.
Figure S2: Stability of the chelated species as monitored by spectrophotometry. UV/VIS spectra of molecules alone using activity buffer at pH 7.4 (in orange at 500 µM) or in the presence of FeCl3 (ratio of 1:1) at different times (t = 0 in red, 30 min in black, 60 min in blue and 240 min in green). The purple trace corresponds to iron only at 500 µM All data are representative of 2 independent experiments performed in duplicate. […]

In a further data set the target is KLK6 (Homo sapiens, UniProt Q92876). Put plainly: KLK6 fluorogenic enzyme inhibition assay (Boc-QAR-AMC).
Another data set addresses T1, KLK8 (Homo sapiens, UniProt O60259).
T1 sequence (O60259 33-260): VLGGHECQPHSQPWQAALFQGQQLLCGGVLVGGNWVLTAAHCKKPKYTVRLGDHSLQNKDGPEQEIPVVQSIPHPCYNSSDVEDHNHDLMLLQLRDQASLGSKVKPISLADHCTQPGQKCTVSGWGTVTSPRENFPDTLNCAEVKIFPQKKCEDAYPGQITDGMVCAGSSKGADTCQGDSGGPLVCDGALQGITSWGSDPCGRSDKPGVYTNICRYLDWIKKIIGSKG
Put plainly: KLK8 fluorogenic enzyme inhibition assay (Boc-VPR-AMC). The conditions noted are these: for Ki′ KLK8 / Type of inhibition KLK8: Dixon plot, without Fe3+; for Ki′ KLK8: 100 μM substrate; for inhibition at 50 µM: read-out: percentage of inhibition KLK8.

For a further data set, the target named is Thrombin (Homo sapiens, UniProt P00734). Put plainly: Selectivity screening, thrombin. The class given is biochemical. The conditions noted are these: 50 μM compound, without Fe3+; read-out: percentage of inhibition Thrombin.
For data set [3], the system named is KLK's of the CNS triad (KLK1‐KLK6‐KLK8). The data set is described as follows: Reversibility analysis by dilution after preincubation. Conditions: 100-fold dilution after 15 min preincubation. The format is biochemical, human.
Method: Aliquots of reaction mixtures (1 μL) were added to 99 μL of buffer containing the fluorogenic substrate (experimental conditions identical to the routine protocol used for a given enzyme). The mechanism of inhibition was determined by varying substrate and inhibitor concentrations, the type of inhibition and inhibition parameter (Ki or Ki′) are determined by Dixon's plots.
In a further data set the target is T2, KLK13 (Homo sapiens, UniProt Q9UKR3).
T2 sequence (Q9UKR3 26-277 limits assumed): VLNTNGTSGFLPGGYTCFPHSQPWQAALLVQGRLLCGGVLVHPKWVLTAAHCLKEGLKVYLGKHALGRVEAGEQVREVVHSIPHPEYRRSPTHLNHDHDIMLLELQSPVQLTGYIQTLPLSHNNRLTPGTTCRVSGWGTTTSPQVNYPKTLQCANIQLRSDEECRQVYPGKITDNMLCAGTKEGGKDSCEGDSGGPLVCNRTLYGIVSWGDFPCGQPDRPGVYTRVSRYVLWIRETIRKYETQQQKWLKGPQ
Put plainly: Selectivity screening, KLK13. The conditions noted are these: read-out: percentage of inhibition KLK13.

A further data set has as its target T3, KLK5 (Homo sapiens, UniProt Q9Y337).
T3 sequence (Q9Y337 67-293 limits assumed): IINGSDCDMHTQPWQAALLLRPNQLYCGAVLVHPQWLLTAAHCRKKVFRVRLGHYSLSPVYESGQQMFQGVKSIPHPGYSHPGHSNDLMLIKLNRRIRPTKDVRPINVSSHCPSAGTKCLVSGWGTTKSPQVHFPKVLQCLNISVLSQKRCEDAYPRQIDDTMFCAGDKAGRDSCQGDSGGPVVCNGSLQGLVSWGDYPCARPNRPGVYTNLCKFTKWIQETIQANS
Put plainly: Selectivity screening, KLK5. Conditions: read-out: percentage of inhibition KLK5.

The target of a further data set is T4, KLK14 (Homo sapiens, UniProt Q9P0G3).
T4 construct: purchased R&D Systems
T4 sequence (Q9P0G3 25-251): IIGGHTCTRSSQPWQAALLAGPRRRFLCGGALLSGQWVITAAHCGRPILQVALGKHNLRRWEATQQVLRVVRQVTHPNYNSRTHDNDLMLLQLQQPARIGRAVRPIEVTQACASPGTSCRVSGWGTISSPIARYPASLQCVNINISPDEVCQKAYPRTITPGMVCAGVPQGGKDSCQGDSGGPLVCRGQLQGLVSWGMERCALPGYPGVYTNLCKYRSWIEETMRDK
The data set is described as follows: Selectivity screening, KLK14. The format is biochemical. Conditions: 50 μM compound, without Fe3+; read-out: percentage of inhibition KLK14.

The nature of data set [4]: CCK8 cell viability assay, HMC3. The class given is cell-based. The conditions noted are these: human, HMC3 microglial cells; HMC3, 24h, 25 and 50 μM, in absence or presence of iron (100 µM FAC); read-out: percentage of cell viability.
Method: (§1) Human neuroblastoma cell line (SH-SY5Y) was purchased at American Type Culture Collection
(§2) Both cell lines were cultured in Dulbecco’s Modified Eagle Medium (DMEM)
(§3) containing 10% heat inactivated fetal bovine serum (FBS), 1% Penicillin/Streptomycin, 10 mM
(§4) Sodium Pyruvate, 2 mM L-Glutamine and 4,5 g/L D-glucose at 37°C, in a 5% humidified
(§5) incubator. Cells were cultivated until 80% confluence in flasks then were plated in 96-well
(§6) plates. For this experiment, SH-SY5Y were used at 10th passage and HMC3 at 13th. SH-SY5Y
(§7) cells were seeded at a density of 3x10^4 cells/well and HMC3 at a density of 10^4 cells/well. After
(§8) seeding, cells were left in complete medium overnight to adhere to the plates. After that, cells
(§9) were treated using inhibitors solubilized in DMSO at stock concentrations of 2,5 mM or 5 mM
(§10) with or without 10 mM iron. Iron solution was prepared by using FAC (Ferric Ammonium
(§11) Citrate, Sigma®) at stock concentration of 25 mM. After 24h of treatment, cell viability was
(§12) assessed with the CCK8 (Cell-Counting Kit 8) from TargetMol. After treatments, 10 µL of CCK8
(§13) reagent was diluted in 90 µL of complete medium and added to each well. After 3 hours at
(§14) 37°C, cell viability was assessed by absorbance measurement at 460 nm. Each viability assay
(§15) is the mean of two independent experiments performed in triplicates.
(§16) treated for 24h with the two selected concentrations of inhibitor (25 µM or 50 µM)
(§17) preincubated or not with 100 µM of FAC. The data are the mean of two independent
experiments performed in triplicates.
For a further data set, the target named is T5, KLK4 (Homo sapiens, UniProt Q9Y5K2).
T5 construct: purchased R&D Systems
T5 sequence (Q9Y5K2 31-254): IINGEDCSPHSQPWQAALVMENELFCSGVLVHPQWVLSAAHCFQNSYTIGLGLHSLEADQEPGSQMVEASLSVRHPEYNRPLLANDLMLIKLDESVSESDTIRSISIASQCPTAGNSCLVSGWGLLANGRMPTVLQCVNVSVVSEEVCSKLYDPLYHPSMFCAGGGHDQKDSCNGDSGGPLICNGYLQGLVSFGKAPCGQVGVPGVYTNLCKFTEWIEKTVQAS
The data set is described as follows: Selectivity screening, KLK4. The class given is biochemical. The conditions noted are these: 50 μM compound, without Fe3+; read-out: percentage of inhibition KLK4.

Data set [5] can be described thus: Calcein transchelation (calcein release) assay. The format is physicochemical. Conditions: calcein 100 nM, 4 h at room temperature; estimation, assay not fully quantitative; read-out: Apparent affinity (pseudo‐affinity constant Kd for Fe3+).
Data set [6] is described as follows: CCK8 cell viability assay, SH-SY5Y. The class given is cell-based. Conditions: human, SH-SY5Y neuroblastoma cells, 25 and 50 μM, in absence or presence of iron (100 µM FAC), read-out: percentage of cell viability. (In general: Tetrazolium dyes change colour on reduction, which living cells bring about.)
Method: as §1, §2, §3, §4, §5, §6, §7, §8, §9, §10, §11, §12, §13, §14, §15, §16, §17
experiments performed in triplicates.
In another data set the target is T6, KLK11 (Homo sapiens, UniProt Q9UBX7).
T6 construct: purchased R&D Systems
T6 sequence (Q9UBX7 54-282): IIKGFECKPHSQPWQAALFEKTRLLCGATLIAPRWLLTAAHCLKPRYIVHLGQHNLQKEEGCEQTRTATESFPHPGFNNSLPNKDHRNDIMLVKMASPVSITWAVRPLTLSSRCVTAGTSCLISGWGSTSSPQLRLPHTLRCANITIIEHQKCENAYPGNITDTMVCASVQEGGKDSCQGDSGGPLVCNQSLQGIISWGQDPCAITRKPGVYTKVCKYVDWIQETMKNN
Put plainly: Selectivity screening, KLK11. The class given is biochemical. Conditions: 50 μM compound, without Fe3+; read-out: percentage of inhibition KLK11.

A further data set concerns the target KLK7 (Homo sapiens, UniProt P49862). Put plainly: Selectivity screening, KLK7. The conditions noted are these: read-out: percentage of inhibition KLK7.
[7] abbreviates: IC50 KLK8, 15 min preincubation at 37 °C, NI = not a hit (not above 50% inhibition at 50 μM).

KLK7, sequence (P49862 30-253): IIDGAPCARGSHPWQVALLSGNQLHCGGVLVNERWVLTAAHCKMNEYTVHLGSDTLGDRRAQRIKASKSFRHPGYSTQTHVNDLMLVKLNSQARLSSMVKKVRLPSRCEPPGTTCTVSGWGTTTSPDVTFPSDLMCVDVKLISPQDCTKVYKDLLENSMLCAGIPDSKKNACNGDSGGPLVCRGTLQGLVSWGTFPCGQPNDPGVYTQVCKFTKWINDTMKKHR
Method for KLK13: (§18) All enzyme stocks were stored at −20 °C and purchased from R&D Systems as proenzymes (KLK6, KLK8, KLK13) or as mature and active forms (KLK5). Activation of KLK6, KLK8, and KLK13 is performed in optimized buffers. The activation reaction is initiated by Lysyl‐Endopeptidase at 2.5 mU mL^−1 (Wako Bioproducts). The activation reaction is stopped by diluting the enzyme to 0.5 μg mL^−1 in assay buffer (50 mM Tris, 1 M Citrate, 0.05% w/v Brij‐35, pH 8) to obtain an active enzyme stock. KLK1 was purchased from R & D Systems as pro‐KLK1. Activation of KLK1 is performed in 50 mM Tris‐HCl, 10 mM CaCl2, 150 mM NaCl, 0.05% Brij‐35, pH 7.5. The activation reaction is initiated by bacterial thermolysin at 0.4 μg mL^−1 (Sigma‐Aldrich) and stopped by addition of 100 mM EDTA (Sigma‐Aldrich) to obtain an active KLK1 stock at the same concentration of 100 μg mL^−1. The activation reactions for KLK7 are initiated bacterial thermolysin at 0.4 μg mL^−1 (Sigma‐Aldrich) and stopped by addition of 100 mM EDTA (Sigma‐Aldrich) to obtain active stocks. All enzyme stocks were stored at −20 °C. H‐PFR‐AMC (KLK1), Boc‐VPR‐AMC (KLK5, KLK8, KLK13), Boc‐QAR‐AMC (KLK6, Plasmin), substrates were purchased from Bachem. MeO‐Suc‐RPY‐AMC (KLK7) substrate was purchased from AAT Bioquest. Plasmin (Sigma‐Aldrich) was purchased in mature and active form.
(§19) Compounds were screened on KLKs using a BMG Fluostar microplate reader (black 96‐well microplates). Hit compounds were screened on the selected group of enzymes using optimized concentrations and buffers (KLK1 0.8 nM, KLK4 10 nM, KLK5 0.2 nM; KLK6 1.9 nM; KLK7 6 nM; KLK8 0.2 nM; KLK11 5.2 nM, KLK13 0.47 nM, KLK14 2.5 nM, plasmin 3.3 nM, thrombin 0.1 nM, tissue‐plasminogen activator (tPA) 0.1 nM, matriptase 1 nM, cathepsin L 2 nM) either in absence or prior preincubation in the presence of 100 μM of Fe^3+.
(§20) The proteases are first preincubated for 15 min with each compound (50 and 100 μM) or with DMSO (<2%, negative control) in a total volume of 85 μL of 50 mM Tris buffer, 1 M citrate, 0.05% Brij‐35, pH 7, 37 °C. The reaction is triggered by the appropriate substrate at the optimized concentration in 15 μL of 50 mM Tris buffer, 1 M citrate, 0.05% Brij‐35, pH 8 (H‐PFR‐AMC 100 μM; Boc‐VPR‐AMC 100 μM; Boc‐QAR‐AMC 100 μM; Meo‐Suc‐RPY‐AMC 150 μM, Z‐LR‐AMC 100 μM, Z‐GGR‐AMC 100 μM) and followed for 30 min at 37 °C. […] The release of the AMC fluorescent group is detected using the following wavelengths: λex = 360 nm and λem = 460 nm. The percent inhibition is calculated from Equation (1) where V 0 is the initial rate of the DMSO control, the initial rate in the presence of the inhibitor V i. (1) %inhibition=(1−(vi/v0))×100
Method for KLK5: as §18, §19, §20
Method for KLK7: as §18
Compounds were screened on KLKs using a BMG Fluostar microplate reader (black 96‐well microplates). […]
The proteases are first preincubated for 15 min with each compound (50 and 100 μM) or with DMSO (<2%, negative control) in a total volume of 85 μL of 50 mM Tris buffer, 1 M citrate, 0.05% Brij‐35, pH 7, 37 °C. […] The release of the AMC fluorescent group is detected using the following wavelengths: λex = 360 nm and λem = 460 nm. The percent inhibition is calculated from Equation (1) where V 0 is the initial rate of the DMSO control, the initial rate in the presence of the inhibitor V i. […]

The term IC50 denotes the concentration needed to halve the response being measured. Regarding `CC(=O)Oc1ccccc1-c1nc(-c2ccccc2OC(C)=O)n(-c2ccc(C(=O)O)cc2)n1` [compound 22], the “change of inhibitory activity in the presence of iron” value (shortened to “change of inhibitory activity”) in [1] is recorded as “do not show an increased inhibitory activity in the presence of iron”. The IC50 against KLK1, against KLK6 and at KLK8 was above 50 µM throughout. The “UV–vis spectrum in the presence of FeCl3 (iron complex formation)” value in data set [2] is given as “no changes in the absorption spectra”.
What is called inhibition is the percentage by which the read-out fell short of the control. In general, Ki refers to a dissociation constant, usually derived from enzyme kinetics or from competition with a known ligand. Low readings indicate higher affinity, high ones lower affinity. The viability is a per cent measure of how many cells are alive, often set against a control. With `Oc1ccc(-n2nc(-c3ccccc3O)nc2-c2ccccc2O)cc1` [3r], the inhibition at 50 µM on Thrombin is below 50%; at KLK13, 98.3%; on KLK5, 85.5%; on KLK1 (read-out: percentage of inhibition KLK1) it was 79.1%; on KLK6 (read-out: percentage of inhibition KLK6), below 50%; at KLK14, 62.2%. The inhibition at 50 µM at KLK4 was found to be 84.3%. The “reversibility and time dependence of inhibition” value in [3] was “reversible and time‐independent inhibitors”. This compound also gave a Ki at KLK1 of 29 µM. In addition, at KLK1 (Dixon plot, without Fe3+), the “Type of inhibition KLK1” value is “Noncompetitive”. In addition, the IC50 on KLK1 was 16.4 ± 1.3 µM; against KLK8, above 50 µM. In addition, the viability at 24 h in data set [4] and in data set [6] was above 80% each time. For the same compound, the Kd in [5] is 0.062 ± 0.014 nM.
For the compound `Oc1ccccc1-c1n[nH]c(-c2ccccc2O)n1` [3c], in data set [1], the “change of inhibitory activity” value was “significant higher inhibitory potency in the presence of Fe^3+ on all KLKs”. In addition, the Kd in data set [5] is 0.032 ± 0.012 nM. The same compound yielded an IC50 against KLK8 (setting [7]) above 50 µM.
Consider `O=C(O)c1cccc(-n2nc(-c3ccccc3O)nc2-c2ccccc2O)c1` [3b], for which the “reversibility and time dependence of inhibition” value in [3] is “reversible and time‐independent inhibitors”. Besides, the inhibition at 50 µM on KLK5 amounted to 98.1%; at KLK14, 95.1%; on KLK11, 90.9%; on KLK4 it was 83.8%; at KLK7 it was 88.1%; at KLK8 it was 62.1%. Also, the viability at 24 h in [4] and in data set [6] was above 80% throughout. Further, the Kd in [5] is 0.063 ± 0.011 nM. The compound also yielded a half-maximal inhibitory concentration (IC50) at KLK8 of 21.4 ± 0.4 µM. In addition, the “Ki′ KLK8” value on KLK8 was 18 µM. Besides, at KLK8, the “Type of inhibition KLK8” value was “Uncompetitive”.
`CC(C)(C)n1nc(-c2ccccc2O)nc1-c1ccccc1O` [3d]: the “change of inhibitory activity” value in data set [1] is listed as “do not show an increased inhibitory activity in the presence of iron”. Moreover, the Kd in data set [5] is 2.15 ± 0.11 nM. The compound also had an IC50 against KLK8 above 50 µM.
Regarding `O=C(O)c1ccc(-n2nc(-c3ccccc3O)nc2-c2ccccc2O)cc1` [3a, Deferasirox], the “reversibility and time dependence of inhibition” value in data set [3] was “reversible and time‐independent inhibitors”. For the same compound, the inhibition at 50 µM worked out at 95.1% on KLK13; 85.1% on KLK5; 94.2% on KLK14; 90.6% on KLK11; 80.6% on KLK4; 70.1% on KLK8. Besides, the “UV–vis spectrum in the presence of FeCl3 (iron complex formation)” value in [2] is “appearance of an absorption band with a maximum at 468 nm”. Also, the viability at 24 h in data set [4] and in data set [6] was above 80% throughout. For the same compound, the Kd in [5] is 0.549 ± 0.007 nM. Further, at KLK8, the “Ki′ KLK8” value worked out at 8 µM. For the same compound, the results for the “Type of inhibition KLK8” value on KLK8 and at KLK8 (listed as DFX) were “Uncompetitive” and “uncompetitive inhibition”, respectively. For the same compound, the concentration for half-maximal inhibition (IC50) is 29.2 ± 1 µM on KLK8 (setting [7]) and around 30 µM against KLK8 (IC50 KLK8, initial screening of an in‐house array of 1,2,4‐triazole derivatives).
